Values joined by “and” are separate entries in the source; they are usually repeats but may differ in a detail not shown here. Equal entries are not always repeated.
How the values were obtained:
[1] = [M+NH4]+; instrument: DT; single field
[2] = instrument: TW, calibrated with phosphatidylcholines (ESI+) and phosphatidylethanolamines (ESI-)

Compound | collision cross section (N2) ([2]; [M+NH4]+) [Å²] | collision cross section (N2) ([2]; [M+Na]+) [Å²] | collision cross section (N2) ([2]; [M-H]-) [Å²] | collision cross section (N2) ([2]; [M+H]+) [Å²] | other results
CC/C=C\C/C=C\C/C=C\C/C=C\C/C=C\CCCCCC(=O)O[C@@H](CO)COC(=O)CCCCCCCCCCCC [DG(35:5)] |  |  |  |  | collision cross section (N2) [1]: 265.29 Å² and 266.85 Å²
CCCCCCCCCCC=CCC=CCC(=O)OC[C@H](CO[C@@H]1O[C@H](CO[C@H]2O[C@H](CO)[C@H](O)C(O)C2O)[C@H](O)C(O)C1O)OC(=O)CC=CCC=CCCCCCCCCCC (some centres undefined) [DGDG(16:1/18:3)] | 303.5 | 301.1 | 301.4 |  | collision cross section (N2) ([2]; [M+Cl]-): 303.2 Å²
CCCCCCCC=CCC=CCC=CCC(=O)OC[C@H](CO[C@@H]1O[C@H](CO[C@H]2O[C@H](CO)[C@H](O)C(O)C2O)[C@H](O)C(O)C1O)OC(=O)CC=CCC=CCC=CCCCCCCC (some centres undefined) [DGDG(16:3/18:3)] | 296.3 | 294.9 | 296.1 |  | collision cross section (N2) ([2]; [M+CH3COO]-): 305.8 Å²; collision cross section (N2) ([2]; [M+Cl]-): 299.9 Å²; collision cross section (N2) ([2]; [M+K]+): 295.2 Å²
CCCCCCCCC=CCC=CCC=CCC(=O)OC[C@H](CO[C@@H]1O[C@H](CO[C@H]2O[C@H](CO)[C@H](O)C(O)C2O)[C@H](O)C(O)C1O)OC(=O)CC=CCC=CCC=CCCCCCCCC (some centres undefined) [DGDG(18:3/18:3)] | 303.2 | 301.9 | 303.3 |  | collision cross section (N2) ([2]; [M+CH3COO]-): 313.7 Å²; collision cross section (N2) ([2]; [M+Cl]-): 305.9 Å²; collision cross section (N2) ([2]; [M+K]+): 302.5 Å²
CCCCCCCCCCCCCC=CCC(=O)OC[C@H](CO[C@@H]1O[C@H](CO[C@H]2O[C@H](CO)[C@H](O)C(O)C2O)[C@H](O)C(O)C1O)OC(=O)CC=CCCCCCCCCCCCCC (some centres undefined) [DGDG(34:2)] | 309 | 305.2 |  |  | 
CCCCCCCCCCCCCCC=CCC(=O)O[C@H](COC(=O)CC=CCCCCCCCCCCCCCCC)CO[C@@H]1O[C@H](CO[C@H]2O[C@H](CO)[C@H](O)C(O)C2O)[C@H](O)C(O)C1O (some centres undefined) [DGDG(35:2)] |  |  |  |  | collision cross section (N2) ([2]; M+NH4]+): 315 Å²
CCCCCCCCCCCCCCCC(=O)OCC(CO[C@@H]1O[C@@H](C(=O)O)[C@H](O)[C@H](O)[C@H]1O)OC(=O)CCCCCCCCCCCCCCC (some centres undefined) [GlcADG(16:0/16:0)] | 286 | 282.6 | 267.9 |  | 
CCCCCC/C=C\CCCCCCCCCC(=O)OC(COC(=O)CCCCCCCCCCCCCCC)CO[C@@H]1O[C@@H](C(=O)O)[C@H](O)[C@H](O)[C@H]1O (some centres undefined) [GlcADG(16:0/18:1)] | 290.1 | 288.1 | 272.7 |  | 
CCCCCCCCCCCCCCCC(=O)OCC(COP(=O)([O-])OCC(O)COC(=O)C(N)CCCC[NH3+])OC(=O)CCCCCCCCCCCCCCC (centres undefined) [LysPG(16:0/16:0)] |  |  | 291.5 | 297 | 
CCCCCCCCCCCCCCC(=O)OCC(COP(=O)([O-])OCC(O)COC(=O)C(N)CCCC[NH3+])OC(=O)CCCCCCCCCCCC (centres undefined) [LysPG(28:0)] |  |  |  | 284.7 | 
CCCCCCCCCCCCCCC(=O)OCC(COP(=O)([O-])OCC(O)COC(=O)C(N)CCCC[NH3+])OC(=O)CCCCCCCCCCCCCC (centres undefined) [LysPG(30:0)] |  |  |  | 290.4 | 
CCCCCC/C=C/CCCCCCCC(=O)OCC(COP(=O)([O-])OCC(O)COC(=O)C(N)CCCC[NH3+])OC(=O)CCCCCCCCCCCCC (centres undefined) [LysPG(30:1)] |  |  |  | 287 | 
CCCCCCCCCCCCCCCC(=O)OC(COC(=O)CCCCCCCCCCCCCC)COP(=O)([O-])OCC(O)COC(=O)C(N)CCCC[NH3+] (centres undefined) [LysPG(31:0)] |  |  |  | 293.9 | 
CCCCCC/C=C/CCCCCCCC(=O)OCC(COP(=O)([O-])OCC(O)COC(=O)C(N)CCCC[NH3+])OC(=O)CCCCCCCCCCCCCCC (centres undefined) [LysPG(32:1)] |  |  |  | 293.5 | 
CCCCCC/C=C\CCCCCCCC(=O)OCC(COP(=O)([O-])OCC(O)COC(=O)C(N)CCCC[NH3+])OC(=O)CCCCCCC/C=C\CCCCCC (centres undefined) [LysPG(32:2)] |  |  |  | 290.8 | 

— the C3SDB collision cross section collection
